Reference: publication PMC10728852, “In Vitro and In Vivo Antidiabetic, α-Glucosidase Inhibition and Antibacterial Activities of Three Brown Algae, Polycladia myrica, Padina antillarum, and Sargassum boveanum, and a Red Alga, Palisada perforata from the Persian Gulf” (Iranian Journal of Pharmaceutical Research : IJPR, 2023)

Biological target: T1, yeast's α-glucosidase
T1 construct: gene MAL12; yeast enzyme
Assay: colorimetric α-glucosidase inhibition assay
Type: biochemical, Saccharomyces cerevisiae
Settings: standard drug; substrate and buffer only in supplement
From the text: colorimetric α-glucosidase inhibition assay on yeast's α-glucosidase

- Enzyme Inhibition IC50: 160.15 ± 27.52 µg/mL
SMILES: C[C@H]1O[C@H](O[C@H]2[C@H](O)[C@@H](O)[C@@H](O[C@H]3[C@H](O)[C@@H](O)C(O)O[C@@H]3CO)O[C@@H]2CO)[C@H](O)[C@@H](O)[C@@H]1N[C@H]1C=C(CO)[C@@H](O)[C@H](O)[C@H]1O (stereo partly shown) [Acarbose]
